# ChEMBL document CHEMBL2321831, “Design, synthesis, and biological evaluations of novel 7-[7-amino-7-methyl-5-azaspiro[2.4]heptan-5-yl]-8-methoxyquinolines with potent antibacterial activity against respiratory pathogens” (J Med Chem, 2013)
# The source made the active and inactive calls. The calls are words filed in the database; no cut-off is given here.
# Key:
# [1] = Ratio of AUC (0 to 8 hrs) in Crj:CD rat kidney to AUC (0 to 8 hrs) in Crj:CD rat serum at 5 mg/kg, po; type: ADME, organism-based; parameters: dose 5 mg/kg, route oral; details: read-out: Ratio AUC
# [2] = system: Klebsiella pneumoniae; experiment: Antibacterial activity against Klebsiella pneumoniae TYPE1 after 18 hrs by microbroth dilution method; type: functional; details: TYPE1, 18 h
# [3] = AUC (0 to 8 hrs) in Crj:CD rat liver at 5 mg/kg, po; type: ADME, organism-based; parameters: time < 8 hr, dose 5 mg/kg, route oral
# [4] = Drug recovery in cynomolgus monkey urine at 5 mg/kg, po after 24 hrs; type: ADME, organism-based, Macaca fascicularis; parameters: dose 5 mg/kg, route oral; details: read-out: Drug recovery
# [5] = system: Mus musculus; experiment: Toxicity in SLC:ddY mouse assessed as induction of micronucleus formation at 100 mg/kg, iv after 24 to 48 hrs by fluorescence microscopic analysis; type: organism-based; parameters: dose 100 mg/kg, route intravenous; details: in vivo
# [6] = AUC (0 to 8 hrs) in Crj:CD rat kidney at 5 mg/kg, po; type: ADME, organism-based; parameters: time < 8 hr, dose 5 mg/kg, route oral
# [7] = system: Staphylococcus aureus; experiment: Ratio of MIC for levofloxacin to compound MIC for Staphylococcus aureus FDA 209-P; type: functional
# [8] = system: Streptococcus pyogenes; experiment: Antibacterial activity against Streptococcus pyogenes G-36 after 18 hrs by microbroth dilution method; type: functional; details: G-36, 18 h
# [9] = Aqueous solubility of the compound; type: physicochemical
# [10] = system: Staphylococcus aureus; experiment: Antibacterial activity against Staphylococcus aureus FDA 209-P after 18 hrs by microbroth dilution method; type: functional
# [11] = biological target: Cytochrome P450 3A4 (Homo sapiens, UniProt P08684); experiment: Inhibition of CYP3A4 in human liver microsomes assessed as 1'-hydroxylation of midazolam; type: ADME, Microsome
# Sequence of Cytochrome P450 3A4 (P08684 whole entry): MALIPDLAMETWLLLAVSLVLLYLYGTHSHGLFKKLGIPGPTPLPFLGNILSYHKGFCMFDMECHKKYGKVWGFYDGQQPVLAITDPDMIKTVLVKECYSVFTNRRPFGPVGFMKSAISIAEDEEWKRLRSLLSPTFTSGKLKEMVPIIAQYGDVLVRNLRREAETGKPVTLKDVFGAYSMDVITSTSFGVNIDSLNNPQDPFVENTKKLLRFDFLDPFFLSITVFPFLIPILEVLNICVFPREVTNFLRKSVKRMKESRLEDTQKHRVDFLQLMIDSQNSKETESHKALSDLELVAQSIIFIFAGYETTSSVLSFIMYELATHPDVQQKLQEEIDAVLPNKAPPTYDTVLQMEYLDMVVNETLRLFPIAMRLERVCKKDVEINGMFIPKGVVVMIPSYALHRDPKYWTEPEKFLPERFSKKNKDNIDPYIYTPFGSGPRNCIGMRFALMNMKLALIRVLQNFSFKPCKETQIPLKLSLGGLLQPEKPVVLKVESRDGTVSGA
# [12] = system: Streptococcus pneumoniae; experiment: Antibacterial activity against quinolone, penicillin-resistant Streptococcus pneumoniae 104835 after 18 hrs by microbroth dilution method; type: functional; details: Streptococcus pneumoniae, 104835, 18 h
# [13] = system: Bacillus subtilis; experiment: Antibacterial activity against Bacillus subtilis IID 685 after 18 hrs by microbroth dilution method; type: functional; details: IID 685, 18 h
# [14] = Bioavailability in cynomolgus monkey at 5 mg/kg, po; type: ADME, organism-based, Macaca fascicularis; details: in vivo
# [15] = AUC (0 to 24 hrs) in cynomolgus monkey serum at 5 mg/kg, po; type: ADME, organism-based, Macaca fascicularis, Plasma; parameters: time < 24 hr, dose 5 mg/kg, route oral
# [16] = AUC (0 to 8 hrs) in Crj:CD rat serum at 5 mg/kg, po; type: ADME, organism-based; parameters: time < 8 hr, dose 5 mg/kg, route oral
# [17] = system: Mus musculus; experiment: Toxicity in SLC:ddY mouse assessed as mortality at 150 mg/kg, iv after 7 days; type: organism-based; parameters: dose 150 mg/kg, route intravenous; details: in vivo, 168 h
# [18] = system: Mycoplasmoides pneumoniae; experiment: Ratio of MIC for levofloxacin to compound MIC for Mycoplasma pneumoniae 18-1; type: functional
# [19] = system: Streptococcus pneumoniae; experiment: Antibacterial activity against quinolone-sensitive Streptococcus pneumoniae infected in po dosed CBA/JNCrj mouse pneumonia model administered bid measured day after final administration of drug; type: functional, organism-based
# [20] = Cmax in cynomolgus monkey serum at 5 mg/kg, po; type: ADME, organism-based, Macaca fascicularis; parameters: dose 5 mg/kg, route oral
# [21] = system: Mycoplasmoides pneumoniae; experiment: Antibacterial activity against Mycoplasma pneumoniae ATCC 29085 after 18 hrs by microbroth dilution method; type: functional; details: ATCC 29085, 18 h
# [22] = system: Staphylococcus epidermidis; experiment: Antibacterial activity against Staphylococcus epidermidis 56500 after 18 hrs by microbroth dilution method; type: functional; details: Staphylococcus epidermidis, 56500, 18 h
# [23] = AUC (0 to 8 hrs) in cynomolgus monkey serum at 5 mg/kg, iv; type: ADME, organism-based, Macaca fascicularis, Plasma; parameters: time < 8 hr, dose 5 mg/kg, route intravenous
# [24] = biological target: T1, hERG (KCNH2) (Homo sapiens, UniProt Q12809); experiment: Inhibition of human ERG expressed in CHOK1 cells at 30 uM; type: cell-based; details: CHO-K1 cells expressing hERG
# T1 sequence (Q12809 whole entry): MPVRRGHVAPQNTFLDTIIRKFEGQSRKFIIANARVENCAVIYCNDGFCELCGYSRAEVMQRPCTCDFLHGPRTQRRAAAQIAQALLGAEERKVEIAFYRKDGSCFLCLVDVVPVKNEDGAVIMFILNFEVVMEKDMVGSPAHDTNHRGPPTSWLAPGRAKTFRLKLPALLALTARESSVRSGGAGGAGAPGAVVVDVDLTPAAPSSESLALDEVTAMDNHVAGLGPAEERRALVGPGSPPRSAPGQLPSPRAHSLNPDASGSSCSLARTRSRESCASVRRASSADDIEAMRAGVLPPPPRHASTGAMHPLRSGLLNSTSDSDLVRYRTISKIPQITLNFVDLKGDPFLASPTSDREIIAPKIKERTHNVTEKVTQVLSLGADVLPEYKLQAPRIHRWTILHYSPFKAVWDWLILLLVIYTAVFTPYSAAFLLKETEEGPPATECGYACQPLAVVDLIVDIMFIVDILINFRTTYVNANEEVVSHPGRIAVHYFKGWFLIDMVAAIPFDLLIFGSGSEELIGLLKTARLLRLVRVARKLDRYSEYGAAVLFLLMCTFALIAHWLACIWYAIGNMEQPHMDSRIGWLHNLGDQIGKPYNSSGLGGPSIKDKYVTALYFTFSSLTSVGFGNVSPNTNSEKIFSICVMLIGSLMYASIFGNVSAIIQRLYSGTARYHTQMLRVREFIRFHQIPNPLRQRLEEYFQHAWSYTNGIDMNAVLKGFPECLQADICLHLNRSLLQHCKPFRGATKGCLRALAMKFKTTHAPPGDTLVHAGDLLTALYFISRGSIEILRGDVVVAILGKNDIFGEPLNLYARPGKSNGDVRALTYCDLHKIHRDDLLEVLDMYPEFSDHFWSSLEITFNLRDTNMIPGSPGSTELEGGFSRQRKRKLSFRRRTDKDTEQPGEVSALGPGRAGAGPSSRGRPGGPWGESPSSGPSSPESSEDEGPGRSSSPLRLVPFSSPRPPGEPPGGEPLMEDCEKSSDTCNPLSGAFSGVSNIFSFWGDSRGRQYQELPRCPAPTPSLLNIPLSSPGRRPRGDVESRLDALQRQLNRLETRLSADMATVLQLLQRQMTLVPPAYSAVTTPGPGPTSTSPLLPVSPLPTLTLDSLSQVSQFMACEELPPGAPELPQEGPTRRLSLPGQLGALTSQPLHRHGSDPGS
# [25] = system: Mus musculus; experiment: Toxicity in SLC:ddY mouse assessed as mortality at 100 mg/kg, iv after 7 days; type: organism-based; parameters: dose 100 mg/kg, route intravenous; details: in vivo, 168 h
# [26] = Drug uptake in cynomolgus monkey serum at 5 mg/kg, iv after 5 mins; type: ADME, organism-based, Macaca fascicularis; parameters: dose 5 mg/kg, route intravenous; details: read-out: Drug uptake
# [27] = system: Staphylococcus epidermidis; experiment: Ratio of MIC for levofloxacin to compound MIC for Staphylococcus epidermidis 56500; type: functional
# [28] = Half life in cynomolgus monkey serum at 5 mg/kg, po; type: ADME, organism-based, Macaca fascicularis; parameters: dose 5 mg/kg, route oral
# [29] = system: Chlamydia pneumoniae; experiment: Antibacterial activity against Chlamydophila pneumoniae AR39 after 18 hrs by microbroth dilution method; type: functional; details: AR39, 18 h
# [30] = system: Mus musculus; experiment: Toxicity in SLC:ddY mouse assessed as induction of micronucleus formation at 150 mg/kg, iv after 24 to 48 hrs by fluorescence microscopic analysis; type: organism-based; parameters: dose 150 mg/kg, route intravenous; details: in vivo
# [31] = system: Staphylococcus aureus; experiment: Antibacterial activity against levofloxacin-resistant and methicillin-resistant Staphylococcus aureus 870307 after 18 hrs by microbroth dilution method; type: functional; details: Staphylococcus aureus, 870307, 18 h
# [32] = system: Bacillus subtilis; experiment: Ratio of MIC for levofloxacin to compound MIC for Bacillus subtilis IID 685; type: functional
# [33] = Cmax in Crj:CD rat serum at 5 mg/kg, po; type: ADME, organism-based; parameters: dose 5 mg/kg, route oral
# [34] = system: Escherichia coli; experiment: Antibacterial activity against Escherichia coli NIHJ after 18 hrs by microbroth dilution method; type: functional
# [35] = system: Mus musculus; experiment: Toxicity in SLC:ddY mouse assessed as mortality at 50 mg/kg, iv after 7 days; type: organism-based; parameters: dose 50 mg/kg, route intravenous; details: in vivo, 168 h
# [36] = Plasma protein binding in human at 5 ug/mL by ultrafiltration method; type: ADME, cell-free; details: read-out: PPB (converted)
# [37] = system: Enterococcus faecalis; experiment: Antibacterial activity against Enterococcus faecalis ATCC 19433 after 18 hrs by microbroth dilution method; type: functional; details: ATCC 19433, 18 h
# [38] = system: Streptococcus pneumoniae; experiment: Antibacterial activity against levofloxacin-intermediate and levofloxacin-resistant Streptococcus pneumoniae after 18 hrs by microbroth dilution method; type: functional
# [39] = Drug recovery in cynomolgus monkey urine at 5 mg/kg, iv after 24 hrs; type: ADME, organism-based, Macaca fascicularis; parameters: dose 5 mg/kg, route intravenous; details: read-out: Drug recovery
# [40] = system: Streptococcus pneumoniae; experiment: Antibacterial activity against penicillin-susceptible Streptococcus pneumoniae J24 after 18 hrs by microbroth dilution method; type: functional; details: J24, 18 h
# [41] = system: Mus musculus; experiment: Toxicity in SLC:ddY mouse assessed as induction of micronucleus formation at 50 mg/kg, iv after 24 to 48 hrs by fluorescence microscopic analysis; type: organism-based; parameters: dose 50 mg/kg, route intravenous; details: in vivo
# [42] = system: Chlamydia pneumoniae; experiment: Ratio of MIC for levofloxacin to compound MIC for Chlamydophila pneumoniae CM-1; type: functional
# [43] = system: Mycoplasmoides pneumoniae; experiment: Ratio of MIC for levofloxacin to compound MIC for Mycoplasma pneumoniae ATCC 29085; type: functional
# [44] = Primary phase half life in cynomolgus monkey serum at 5 mg/kg, iv; type: ADME, organism-based, Macaca fascicularis; parameters: dose 5 mg/kg, route intravenous; details: read-out: alphat1/2 (converted)
# [45] = system: Moraxella catarrhalis; experiment: Antibacterial activity against Moraxella catarrhalis ATCC 25238 after 18 hrs by microbroth dilution method; type: functional; details: ATCC 25238, 18 h
# [46] = system: Pseudomonas aeruginosa; experiment: Antibacterial activity against Pseudomonas aeruginosa PAO1 after 18 hrs by microbroth dilution method; type: functional; details: PAO1, 18 h
# [47] = system: Chlamydia pneumoniae; experiment: Ratio of MIC for levofloxacin to compound MIC for Chlamydophila pneumoniae AR39; type: functional
# [48] = Ratio of AUC (0 to 8 hrs) in Crj:CD rat liver to AUC (0 to 8 hrs) in Crj:CD rat serum at 5 mg/kg, po; type: ADME, organism-based; parameters: dose 5 mg/kg, route oral; details: read-out: Ratio AUC
# [49] = system: Haemophilus influenzae; experiment: Antibacterial activity against Haemophilus influenzae ATCC 49247 after 18 hrs by microbroth dilution method; type: functional; details: ATCC 49247, 18 h
# [50] = Drug recovery in Crj:CD rat urine at 5 mg/kg, po after 24 hrs; type: ADME, organism-based; parameters: dose 5 mg/kg, route oral; details: read-out: Drug recovery
# [51] = Ratio of AUC (0 to 8 hrs) in Crj:CD rat lung to AUC (0 to 8 hrs) in Crj:CD rat serum at 5 mg/kg, po; type: ADME, organism-based; parameters: dose 5 mg/kg, route oral; details: read-out: Ratio AUC
# [52] = system: Streptococcus pyogenes; experiment: Ratio of MIC for levofloxacin to compound MIC for Streptococcus pyogenes G-36; type: functional
# [53] = system: Chlamydia pneumoniae; experiment: Antibacterial activity against Chlamydophila pneumoniae CM-1 after 18 hrs by microbroth dilution method; type: functional; details: CM-1, 18 h
# [54] = biological target: T1, hERG (KCNH2); experiment: Inhibition of human ERG expressed in CHOK1 cells at 100 uM; type: cell-based; details: CHO-K1 cells expressing hERG
# [55] = system: Enterococcus faecalis; experiment: Ratio of MIC for levofloxacin to compound MIC for Enterococcus faecalis ATCC 19433; type: functional
# [56] = system: Streptococcus pneumoniae; experiment: Antibacterial activity against quinolone-resistant Streptococcus pneumoniae infected in sc dosed CBA/JNCrj mouse pneumonia model administered bid measured day after final administration of drug; type: functional, organism-based
# [57] = system: Mycoplasmoides pneumoniae; experiment: Antibacterial activity against Mycoplasma pneumoniae 18-1 after 18 hrs by microbroth dilution method; type: functional; details: 18-1, 18 h
# [58] = Chloroform-phosphate buffer apparent partition coefficient of the compound, P at pH 7.4
# [59] = system: Streptococcus pneumoniae; experiment: Ratio of MIC for levofloxacin to compound MIC for penicillin-susceptible Streptococcus pneumoniae J24; type: functional
# [60] = AUC (0 to 8 hrs) in Crj:CD rat lung at 5 mg/kg, po; type: ADME, organism-based; parameters: time < 8 hr, dose 5 mg/kg, route oral
structure (smiles),measurement,setting,value
COc1c(N2CC3(CC3)[C@](C)(N)C2)c(F)cc2c(=O)c(C(=O)O)cn([C@@H]3C[C@@H]3F)c12,Kp,[1],9
same,MIC,[2],0.05 µg/mL
same,AUC(0-t) at 8 h,[3],32100 ng·h/mL
same,dose excreted at 24 h,[4],61.3%
same,Activity,[5],Non-toxic
same,AUC(0-t) at 8 h,[6],27800 ng·h/mL
same,Ratio,[7],>4
same,MIC,[8],0.2 µg/mL
same,solubility,[9],620 µg/mL
same,MIC,[10],0.025 µg/mL
same,inhibition (INH),[11],Not Active
same,MIC,[12],0.39 µg/mL
same,MIC,[13],0.1 µg/mL
same,bioavailability,[14],71%
same,AUC(0-t) at 24 h,[15],16900 ng·h/mL
same,AUC(0-t) at 8 h,[16],3080 ng·h/mL
same,Activity,[17],Non-toxic
same,Ratio,[18],4
same,Activity,[19],Active
same,Cmax,[20],2200 ng/mL
same,MIC,[21],0.12 µg/mL
same,MIC,[22],0.1 µg/mL
same,AUC(0-t) at 8 h,[23],23800 ng·h/mL
same,inhibition at 30 µM,[24],1.9%
same,Activity,[25],Non-toxic
same,concentration at 5 min,[26],3660 ng/mL
same,Ratio,[27],>4
same,half-life,[28],4.8 h
same,MIC,[29],0.125 µg/mL
same,Activity,[30],Non-toxic
same,MIC,[31],0.39 µg/mL
same,Ratio,[32],>4
same,Cmax,[33],1220 ng/mL
same,MIC,[34],0.012 µg/mL
same,Activity,[35],Non-toxic
same,fraction unbound at 5 ug/mL,[36],0.653
same,MIC,[37],0.2 µg/mL
same,MIC50,[38],1 µg/mL
same,MIC80,[38],1 µg/mL
same,MIC90,[38],1 µg/mL
same,dose excreted at 24 h,[39],69.8%
same,MIC,[40],0.05 µg/mL
same,Activity,[41],Non-toxic
same,Ratio,[42],4
same,Ratio,[43],4
same,half-life,[44],4.8 h
same,MIC,[45],0.05 µg/mL
same,MIC,[46],0.78 µg/mL
same,Ratio,[47],4
same,Kp,[48],10.4
same,MIC,[49],0.012 µg/mL
same,dose excreted at 24 h,[50],32%
same,Kp,[51],4.4
same,Ratio,[52],>4
same,MIC,[53],0.063 µg/mL
same,inhibition at 100 µM,[54],2.7%
same,Ratio,[55],>4
same,Activity,[56],Active
same,MIC,[57],0.12 µg/mL
same,P,[58],19.2
same,Ratio,[59],>4
same,AUC(0-t) at 8 h,[60],13700 ng·h/mL
